The record followed here is ChEMBL document CHEMBL4376867 (J Med Chem, 2020).

Molecules are shown by their SMILES.

The target in series [1] is T1, Serine/threonine-protein kinase TBK1 (Homo sapiens, UniProt Q9UHD2).
T1 sequence (Q9UHD2 whole entry): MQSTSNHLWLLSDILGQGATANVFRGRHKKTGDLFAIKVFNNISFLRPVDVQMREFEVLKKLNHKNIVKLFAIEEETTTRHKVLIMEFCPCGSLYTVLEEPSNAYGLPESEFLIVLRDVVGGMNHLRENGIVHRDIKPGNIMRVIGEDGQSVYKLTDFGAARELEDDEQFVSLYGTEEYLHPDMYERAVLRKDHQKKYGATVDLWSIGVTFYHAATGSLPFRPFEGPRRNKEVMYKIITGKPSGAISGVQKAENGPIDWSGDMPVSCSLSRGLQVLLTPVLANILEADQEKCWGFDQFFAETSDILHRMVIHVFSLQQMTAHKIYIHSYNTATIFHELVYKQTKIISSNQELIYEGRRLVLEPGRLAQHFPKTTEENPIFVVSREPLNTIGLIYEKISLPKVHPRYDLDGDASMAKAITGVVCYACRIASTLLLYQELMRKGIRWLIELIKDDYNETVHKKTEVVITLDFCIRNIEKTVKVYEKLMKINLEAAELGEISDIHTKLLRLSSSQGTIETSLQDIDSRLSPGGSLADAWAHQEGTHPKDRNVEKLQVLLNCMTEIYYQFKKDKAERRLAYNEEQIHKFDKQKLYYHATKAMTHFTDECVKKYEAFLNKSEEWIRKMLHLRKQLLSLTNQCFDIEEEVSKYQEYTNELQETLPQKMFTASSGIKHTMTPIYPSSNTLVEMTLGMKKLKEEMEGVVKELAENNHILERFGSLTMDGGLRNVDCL
Put plainly: Inhibition of recombinant full length human N-terminal His-tagged TBK1 using biotin-labelled Ahx-GDEDFSSFAEPG peptide as substrate preincubated with enzyme for 15 mins followed by substrate addition and further incubated for 30 mins in presence of 1 mM of ATP by TR-FRET assay. On the technique in general: Time-resolved FRET reads energy transfer from a long-lived donor to a nearby acceptor.

For another series, the system named is ACHN. Description: Antiproliferative activity against human ACHN cells harboring CDKN2A mutation assessed as reduction in cell viability after 96 hrs by CellTiter-Glo luminescence assay. In kind it is functional, cell-based. For orientation: ATP-based viability assays read luminescence as a measure of living cells.
The target in series [2] is T2, Receptor-type tyrosine-protein kinase FLT3 (Homo sapiens, UniProt P36888).
T2 sequence (P36888 whole entry): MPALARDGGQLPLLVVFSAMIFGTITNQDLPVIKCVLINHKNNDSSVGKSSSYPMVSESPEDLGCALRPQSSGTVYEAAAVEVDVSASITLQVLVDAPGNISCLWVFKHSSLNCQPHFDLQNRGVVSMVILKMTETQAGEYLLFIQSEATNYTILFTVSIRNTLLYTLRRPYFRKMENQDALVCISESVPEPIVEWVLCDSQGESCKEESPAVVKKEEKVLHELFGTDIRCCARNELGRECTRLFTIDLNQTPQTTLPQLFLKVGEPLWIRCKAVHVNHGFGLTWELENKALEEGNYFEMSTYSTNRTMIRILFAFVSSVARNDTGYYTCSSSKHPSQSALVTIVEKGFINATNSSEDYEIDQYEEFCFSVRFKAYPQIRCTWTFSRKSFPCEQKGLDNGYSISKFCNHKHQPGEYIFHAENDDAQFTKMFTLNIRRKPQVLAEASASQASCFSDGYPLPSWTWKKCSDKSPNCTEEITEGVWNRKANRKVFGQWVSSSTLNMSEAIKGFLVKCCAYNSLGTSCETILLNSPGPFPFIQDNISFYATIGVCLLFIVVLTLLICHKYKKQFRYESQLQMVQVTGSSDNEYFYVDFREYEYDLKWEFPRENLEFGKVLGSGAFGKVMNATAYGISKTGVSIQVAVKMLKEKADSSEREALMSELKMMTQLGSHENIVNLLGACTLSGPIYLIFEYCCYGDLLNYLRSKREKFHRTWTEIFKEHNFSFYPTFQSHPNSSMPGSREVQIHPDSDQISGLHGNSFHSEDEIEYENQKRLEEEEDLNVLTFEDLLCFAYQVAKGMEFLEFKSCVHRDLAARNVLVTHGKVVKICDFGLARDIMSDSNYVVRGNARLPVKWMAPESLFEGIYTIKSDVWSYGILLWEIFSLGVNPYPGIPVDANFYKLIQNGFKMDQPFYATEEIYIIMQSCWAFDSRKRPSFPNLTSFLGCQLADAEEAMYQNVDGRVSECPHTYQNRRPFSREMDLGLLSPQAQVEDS
Put plainly: Inhibition of recombinant human N-terminal GST-tagged FLT3 (564 to end residues) expressed in sf21 cells using biotin labelled Ahx-GGEEEEYFELVKKKK peptide as substrate preincubated with enzyme for 15 mins followed by substrate addition and further incubated for 45 mins in presence of 10 uM of ATP by TR-FRET assay.

Series [3] deals with Ribosomal protein S6 kinase alpha-6 (Homo sapiens, UniProt Q9UK32). Put plainly: Inhibition of recombinant full length human His6-tagged RSK4 expressed in baculovirus infected sf21 cells using biotin labelled Ahx-KKLNRTLSFAEPG peptide as substrate preincubated with enzyme for 15 mins followed by substrate addition and further incubated for 30 mins in presence of 10 uM of ATP by TR-FRET assay.
Chain of Ribosomal protein S6 kinase alpha-6 (Q9UK32 whole entry): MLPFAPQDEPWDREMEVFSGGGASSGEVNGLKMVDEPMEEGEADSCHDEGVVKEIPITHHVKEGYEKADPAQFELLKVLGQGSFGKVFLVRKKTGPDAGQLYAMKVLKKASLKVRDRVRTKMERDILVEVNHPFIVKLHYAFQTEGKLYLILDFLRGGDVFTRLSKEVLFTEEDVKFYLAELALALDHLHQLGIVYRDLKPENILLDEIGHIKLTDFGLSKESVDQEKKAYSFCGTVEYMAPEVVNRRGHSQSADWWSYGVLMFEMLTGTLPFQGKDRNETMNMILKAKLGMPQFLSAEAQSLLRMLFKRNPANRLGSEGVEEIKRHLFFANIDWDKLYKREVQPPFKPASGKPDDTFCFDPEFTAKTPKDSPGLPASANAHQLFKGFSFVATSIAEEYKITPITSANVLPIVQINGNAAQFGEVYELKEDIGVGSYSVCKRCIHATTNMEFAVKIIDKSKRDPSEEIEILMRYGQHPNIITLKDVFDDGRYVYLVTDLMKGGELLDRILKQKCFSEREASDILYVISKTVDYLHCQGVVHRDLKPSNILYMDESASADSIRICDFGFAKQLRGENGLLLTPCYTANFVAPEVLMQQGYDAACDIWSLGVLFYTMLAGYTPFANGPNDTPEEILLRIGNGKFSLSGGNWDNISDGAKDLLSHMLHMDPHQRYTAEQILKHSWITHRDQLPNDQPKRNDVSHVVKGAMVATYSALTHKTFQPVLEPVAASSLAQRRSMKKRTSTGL

The nature of series [4]: Apparent permeability of compound across basal to apical membrane in human Caco2 cells at 2 uM in DMSO after 2 hrs by LC-MS/MS analysis. The settings on record: Caco-2. In kind it is ADME, cell-based.
A further series concerns SK-MEL-2. Description: Antiproliferative activity against human SK-MEL-2 cells harboring NRAS/TP53 mutation assessed as reduction in cell viability after 96 hrs by CellTiter-Glo luminescence assay. The format is functional, cell-based. The settings on record: SK-MEL-2, 96 h.

A word on the IC50: it is the midpoint of a concentration-inhibition curve. In general, Papp B→A refers to how fast a substance crosses the layer from the basolateral side. Regarding `C[C@H](c1ccnc(Nc2nc3ccc(-c4cnn(CC5CC5)c4)cc3[nH]2)c1)N1CCN(C(=O)CC(F)(F)F)CC1`, the IC50 turned out to be 18 nM in series [1]; 5270 nM in the series on ACHN; 18 nM in series [2]; 3220 nM in series [3]; 408 nM with SK-MEL-2. Moreover, the Papp B→A at 2 h, 2 µM in series [4] was 11.8 ×10⁻⁶ cm/s.

For the compound `C[C@H](c1ccnc(Nc2nc3ccc(-c4cnn(CC5CCC5)c4)cc3[nH]2)c1)N1CCN(C(=O)CC(F)(F)F)CC1`, the IC50 was 6 nM in series [1]; 5420 nM in the series with ACHN; 357 nM in series [2]; 325 nM in series [3]; 3710 nM in the series on SK-MEL-2.

For `CN(C)c1cc(-c2ccc3nc(Nc4cc(CN5CCN(C(=O)CC(F)(F)F)CC5)ccn4)[nH]c3c2)ncn1`, the IC50 in series [1] turned out to be 167 nM; in the series on ACHN, 9690 nM; in series [2] it was 114 nM; in series [3], 528 nM; with SK-MEL-2 it was 246 nM.

Regarding `C[C@H](c1ccnc(Nc2nc3ccc(-c4cc(OCC5CC5)ncn4)cc3[nH]2)c1)N1CCN(C(=O)CC(F)(F)F)CC1`, the IC50 in series [1] is 5 nM; in the series with ACHN, 3870 nM; in series [2], 13 nM; in series [3], 1260 nM; with SK-MEL-2, 470 nM.

Consider `O=C(CC(F)(F)F)N1CCN(Cc2ccnc(Nc3nc4ccc(-c5cnn(CC6CC6)c5)cc4[nH]3)c2)CC1`, for which the IC50 in series [1] amounted to 137 nM; in the series on ACHN, 7900 nM; in series [2], 9 nM; in series [3] it was 4120 nM; in the series with SK-MEL-2, 221 nM. Moreover, the basolateral-to-apical permeability (Papp B→A) at 2 h, 2 µM in series [4] came out at 12.5 ×10⁻⁶ cm/s.

For `Cc1cc(-c2ccc3nc(Nc4cc([C@@H](C)N5CCN(C(=O)CC(F)(F)F)CC5)ccn4)[nH]c3c2)ncn1`, the IC50 in series [1] was 17 nM; in the series with ACHN, 2010 nM; in series [2], 10 nM; in series [3], 170 nM; in the series on SK-MEL-2 it was 476 nM.

With `CC(C)Oc1cncnc1-c1ccc2nc(Nc3cc([C@@H](C)N4CCN(C(=O)CC(F)(F)F)CC4)ccn3)[nH]c2c1`, the IC50 in series [1] was 50 nM; with ACHN it was 7960 nM; in series [2], 1 nM; in series [3], 7 nM; in the series on SK-MEL-2, 3970 nM.

`Cc1noc(-c2ccc3nc(Nc4cc(CN5CCN(C(=O)CC(F)(F)F)CC5)ccn4)[nH]c3c2)n1`: the IC50 turned out to be 2270 nM in series [1]; 9670 nM in the series with ACHN; 37 nM in series [2]; 8910 nM in series [3]; 2180 nM in the series with SK-MEL-2. The Papp B→A at 2 h, 2 µM in series [4] is 14.2 ×10⁻⁶ cm/s.

For the compound `Cc1noc(-c2ccc3nc(Nc4cc([C@@H](C)N5CCN(C(=O)CC(F)(F)F)CC5)ccn4)[nH]c3c2)n1`, the half-maximal inhibitory concentration (IC50) was 372 nM in series [1]; 8980 nM in the series on ACHN; 30 nM in series [2]; 2360 nM in series [3]; 3530 nM with SK-MEL-2. The basolateral-to-apical permeability (Papp B→A) at 2 h, 2 µM in series [4] was determined as 8.6 ×10⁻⁶ cm/s.

Take `COCc1cc(-c2ccc3nc(Nc4cc([C@@H](C)N5CCN(C(=O)CC(F)(F)F)CC5)ccn4)[nH]c3c2)ncn1`: the IC50 in the series with ACHN was 13400 nM; in series [2], 5 nM; in series [3], 192 nM; in the series on SK-MEL-2 it was 883 nM. For the same compound, the Papp B→A at 2 h, 2 µM in series [4] was determined as 21.8 ×10⁻⁶ cm/s.

Take `CNc1cc(-c2ccc3nc(Nc4cc(CN5CCN(C(=O)CC(F)(F)F)CC5)ccn4)[nH]c3c2)ncn1`: the IC50 in series [1] came out at 155 nM; in the series with ACHN it was 29800 nM; in series [2], 6 nM; in series [3], 177 nM; in the series with SK-MEL-2, 245 nM.

Regarding `C[C@H](c1ccnc(Nc2nc3ccc(-c4cc(N(C)C)ncn4)cc3[nH]2)c1)N1CCN(C(=O)CC(F)(F)F)CC1` [BAY-985], the IC50 in series [1] is 30 nM; with ACHN, 7260 nM; in series [2] it was 123 nM; in series [3] it was 276 nM; with SK-MEL-2 it was 900 nM. In addition, the Papp B→A at 2 h, 2 µM in series [4] fell in the range of 14.6 to 14.7 ×10⁻⁶ cm/s.
